For data set [1] the following is noted: short term infusion in humans, supraphysiological levels in plasma; cited from earlier work.
Data set [2] can be described thus: Observation of abnormalities after 4 days of CNP treatment. It is filed as in vivo, mice. Conditions: present dosages and injection protocols. An excerpt:
CNP acts exclusively through NPRB whereas ANP and BNP act through NPRA. […] The apparent lack of side effects using the present low doses of CNP is consistent with earlier reports showing minimal cardiac and renal actions using physiological concentrations of CNP.

Data set [3] concerns somatic cells from ovaries of mice at day 13 of age. Briefly: cGMP and cAMP production by cultured somatic cells. In kind it is cell-based. Conditions: day 13 mice, 2 h. Here is the method:
(§1) Stimulation of cGMP, but not cAMP, production by cultured ovarian somatic cells: Because the NPRB receptors mediated cGMP production stimulated by the CNP ligand, we isolated somatic cells from ovaries of mice at day 13 of age and granulosa cells from mice at day 21 of age before treatment with increasing doses of CNP or a high dose (30 nM) of ANP for 2 h. Media content of both cGMP and cAMP were determined by RIA.

In data set [4] the test system is granulosa cells from mice at day 21 of age. The experiment in a line: cGMP and cAMP production by cultured granulosa cells. Conditions: day 21 mice, 2 h. In kind it is cell-based. Here is the method: as §1
Background: Changes in cAMP serve as a functional read-out for many G protein-coupled receptors.

The subject of the next data set is early antral follicles. The experiment in a line: In vivo treatment of prepubertal mice (day 21) with CNP followed by hCG, in vitro fertilization, mating. Here is the method: To further test the ability of CNP to stimulate the development of early antral follicles to the preovulatory stage, prepubertal mice at day 21 days of age were treated i.p. with CNP daily for 4 days followed by a single injection of an ovulatory dose of hCG. At […] after hCG treatment, the number of ovulated mature oocytes were determined.
We further tested if ovulated oocytes retrieved after CNP pretreatment are capable of being fertilized. Oocytes were obtained from oviducts of CNP-pretreated prepubertal mice after hCG treatment and used for in vitro fertilization. We used oocytes obtained from prepubertal mice treated sequential with eCG (2 days) and hCG (16 h) as controls. […] Some prepubertal females pretreated with CNP followed by hCG to induce ovulation were mated with fertile males.
(§2) In vivo treatment with CNP, ovulation, and pregnancy: Infantile mice at day 13 of age were treated with CNP (20 ug/kg body weight) i.p. daily for 4 days. This was followed by a single injection of eCG (5 IU) for 2 days to stimulate penultimate follicle maturation before collection of ovaries for weighting and histological analyses. Some animals were further treated with an ovulatory dose (5 IU) of hCG and oocytes in oviducts were monitored at 16 h later to evaluate ovulation efficiency. To test the effects of CNP on early antral follicle growth, prepubertal mice at day 21 of age were treated intraperitoneally with CNP (50 ug/kg body weight) daily for four days to stimulate preovulatory follicle development, followed by the injection of an ovulatory dose (2.5 IU) of hCG. At 16 h later, number of ovulated oocytes was determined. Mature oocytes obtained from CNP-pretreated animals were used for in vitro fertilization. Sperm from CD1 male mice (10-12 weeks old) were collected into human tubal fluid media (Millipore) and incubated for 1 h at 37 C. Oocytes were fertilized with sperm (2-3×10^5/ml) for 6 h and inseminated oocytes were transfer into KSOM-AA medium (Millipore) to allow development into blastocysts. Some of the CNP-pretreated females were mated with fertile males for the monitoring of pregnancy and the delivery of pups.

Data set [5] relates to preantral follicles. Briefly: Preantral follicle culture. In kind it is cell-based, mice. An excerpt: CNP treatment promoted the growth of preantral follicles and cultured ovarian explants: Preantral follicles (125-135 um in diameter) were isolated from ovaries of mice at day 13 of age and treated with different hormones for four days with daily monitoring of follicle diameters. […] In contrast, treatment with ANP was ineffective.
Dissection follicles of different sizes and culturing of preantral follicles: For RT-PCR analyses, early secondary follicles of 90-140 um in diameters were isolated from mice at day 13 of age whereas antral follicles (300-400 um in diameter) were isolated from prepubertal mice at day 23 of age. Preovulatory follicles (500-600 um in diameter) were isolated from prepubertal mice treated with eCG (5 IU). For follicle cultures, preantral follicles (125-145 um in diameter) were isolated from mice at day 13 of age and cultured individually in 96 well plates containing alpha-MEM (100 ul/well) with penicillin and streptomycin together with insulin, transferrin and selenium. […] The media were changed every two days and follicle growth was monitored daily by measuring follicle diameters.

The subject of data set [6] is human ovarian cortical fragments. The experiment in a line: Xenografts of human ovarian cortical fragments. It is filed as in vivo. On the technique in general: A xenograft is tissue or cells of one species grown in another, often human tumour cells in immunodeficient mice.
In a further data set the test system is ovaries from day 10 mice. The experiment in a line: Ovarian explant cultures treated with CNP and/or FSH. It is filed as cell-based. Conditions: 4 days culture. Here is the method: Ovarian explant cultures: Ovaries from day 10 mice were placed on culture plate inserts (Millipore, Bedford, Mass.) and cultured in 400 μl of DMEM/F12 containing 0.1% BSA (Sigma), 0.1% Albumax II, insulin-transferrin-selenium, 0.05 mg/ml L-ascorbic acid and penicillin-streptomycin under the membrane insert to cover ovaries with a thin layer of medium. […] Some explants were also treated with a pan-specific protein kinase G inhibitor, Rp-8-Br-PET-cGMPS (BioLog, Bremen, Germany). At the end of culture, ovaries were fixed in Bouin's solution, paraffin embedded, and cut into continuous sections before staining with hematoxylin and eosin.

Data set [7] deals with preantral follicles. Briefly: In vivo treatment of juvenile mice (day 13) with CNP followed by eCG/hCG. Conditions: day 13 mice. Here is the method:
In vivo treatment with CNP promoted follicle development for ovulation and subsequent pregnancy in juvenile, prepubertal, and adult mice: To test the ability CNP to stimulate preantral follicle development in vivo, juvenile mice at day 13 of age were treated i.p. with CNP daily for 4 days. This was followed by a single i.p. injection of eCG for 2 more days before determination of ovarian weight. […] Some of these animals were further treated with an ovulatory dose of hCG to check ovulation efficiency.
as §2

In the case of “CNP: 22 amino acid peptide cleaved from NPPC precursor; activates natriuretic peptide receptor-B (NPRB)”, in data set [1], the “Vasodepressor or natriuretic action” value was “not vasodepressor or natriuretic”. Further, the Abnormalities following treatment entry in data set [2] is reported as “did not observe abnormalities”. In addition, the cAMP production entry in data set [3] and in [4] was “no changes in cAMP production” in each case. In addition, the “Media content of cGMP” value in data set [3] (ANP 30 nM) and in data set [4] (ANP 30 nM) was “dose-dependent increases in media content of cGMP” in each case. Besides, the “Number of ovulated oocytes induced by hCG vs saline” value in the data set with early antral follicles (day 21 mice, 18 h after hCG) is recorded as “an increase in the number of ovulated oocytes”. The Ovarian weight result with early antral follicles (day 21 mice, i.p. 50 ug/kg daily for 4 days, then hCG) is reported as “increased ovarian weight”. The “Development of fertilized oocytes to the blastocyst stage vs control oocytes (eCG-hCG)” value in the data set on early antral follicles (in vitro fertilization of oocytes of CNP-pretreated prepubertal mice) was “same efficiency”. In addition, in the data set on early antral follicles (prepubertal females pretreated with CNP followed by hCG), the “Pregnancy after mating with fertile males” value is listed as “Successful pregnancy was demonstrated followed by the delivery of healthy pups”. Moreover, in the data set on preantral follicles [5] (FSH 25 ng/ml), the “Follicle growth, combined treatment with CNP and FSH” value is “additive increases in follicle growth”. For the same substance, in the data set on preantral follicles [5] (four days culture), the “Follicle size compared with 8-bromo-cGMP” value is “comparable”. Further, in the data set on preantral follicles [5] (preantral follicles of day 13 mice, four days), the “Follicle size (diameter)” value was “dose- and time-dependent increases in follicle size”. In addition, in [6], the “Follicle growth as revealed by follicle counting” value was “stimulated follicle growth”. Also, the “Development of preantral follicles (histological analyses)” value with ovaries from day 10 mice is “promoted the development of preantral follicles”. Besides, in the data set on ovaries from day 10 mice (combined with FSH), the “Ovarian weights of explants, both CNP and FSH included” value is listed as “additive increases”. For the same substance, the “Ovarian weights of explants” value with ovaries from day 10 mice (day 10 ovaries) is on record as “dose-dependent increases in ovarian weights”. Also, the “Ovulated oocytes in the oviducts vs controls” value in the data set with preantral follicles [7] (CNP, then eCG and hCG) is reported as “higher numbers of ovulated oocyte”. Also, the “Increase in ovarian weight” value in the data set with preantral follicles [7] (i.p. 20 ug/kg daily for 4 days, then eCG 2 days) stood at 56%. Moreover, in the data set on preantral follicles [7] (i.p. daily for 4 days, then eCG), the “Development of antral follicles (histological analyses)” value is “increases in the development of antral follicles”.

The values are drawn from patent US10792311B2, “Stimulation of ovarian follicle development and oocyte maturation” (The Board of Trustees of the Leland Stanford Junior …, priority 2011, dated 2020).
